Measured values reported in US11214803B2, “Modulators of YAP1 expression” (Ionis Pharmaceuticals, Inc., priority 2019, dated 2022).
Strand notation (5' to 3'): a small letter for the sugar, then the base; units joined by * are phosphorothioate-linked, units joined directly phosphodiester-linked; [ ] holds rarer units or linkages, { } end groups; capitals alone tell only the bases. k = constrained ethyl (cEt); [5mC] = 5-methylcytosine; d = 2'-deoxy (DNA)

How the values were obtained:
[1] = tested on: Yap1 mRNA; test: Antisense inhibition of human Yap1 in A-431 cells by cEt gapmers, single dose (Example 1, RTS4814); format: cell-based
Experimental: Modified oligonucleotides were designed to target a Yap1 nucleic acid and were tested for their effect on Yap1 mRNA level in vitro. The modified oligonucleotides were tested in a series of experiments that had similar culture conditions. Cultured A-431 cells at a density of 5,000 cells per well were treated using free uptake with 2,000 nM of modified oligonucleotide. After a treatment period of approximately 48 hours, RNA was isolated from the cells and Yap1 mRNA levels were measured by quantitative real-time RTPCR. Human primer probe set RTS4814 (forward sequence […], designated herein as SEQ ID NO.: 11; reverse sequence […], designated herein as SEQ ID NO.: 12; probe sequence […], designated herein as SEQ ID NO.: 13) was used to measure mRNA levels. Yap1 mRNA levels were normalized to total RNA content, as measured by RIBOGREEN®. Results are presented in the tables below as percent control of the amount of Yap1 mRNA relative to untreated control cells (% UTC). The modified oligonucleotides with percent control values marked with an asterisk (*) target the amplicon region of the primer probe set. Additional assays may be used to measure the potency and efficacy of the modified oligonucleotides targeting the amplicon region.
The newly designed modified oligonucleotides in the Tables below were designed as 3-10-3 cEt gapmers. The gapmers are 16 nucleosides in length, wherein the central gap segment comprises of ten 2′-deoxynucleosides and is flanked by wing segments on the 5′ direction and the 3′ direction comprising three nucleosides each. Each nucleoside in the 5′ wing segment and each nucleoside in the 3′ wing segment has a cEt sugar modification. The internucleoside linkages throughout each gapmer are phosphorothioate (P═S) linkages. All cytosine residues throughout each gapmer are 5-methylcytosines.
“Start site” indicates the 5′-most nucleoside to which the gapmer is targeted in the human gene sequence. “Stop site” indicates the 3′-most nucleoside to which the gapmer is targeted human gene sequence. […] Activity of the modified oligonucleotide may be defined in a different experiment.

[2] = tested on: Yap1 mRNA; test: Dose-dependent inhibition of human Yap1 in A-431 cells (Example 6, 5,000 cells per well, RTS4814); format: cell-based; conditions: for % UTC 148 nM / % UTC 444 nM / % UTC 1333 nM / % UTC 4000 nM: approximately 48 hours; for Yap1 mRNA, % UTC: 48 hours
Experimental: Modified oligonucleotides described in the studies above were tested at various doses in A-431 cells. Cultured A-431 cells at a density of 5,000 cells per well were treated using free uptake with modified oligonucleotides diluted to concentrations described in the tables below. After approximately 48 hours, Yap1 mRNA levels were measured as previously described using the Human Yap1 primer-probe set RTS4814. Yap1 mRNA levels were normalized to total RNA content, as measured by RIBOGREEN®. Results are presented in the tables below as percent control of the amount of Yap1 mRNA relative to untreated control cells (% UTC). IC50s were calculated using a linear regression on a log/linear plot of the data in excel.

[3] = Table 1, A-431 cells, free uptake, 2,000 nM, approximately 48 hours, RTS4814, Yap1 mRNA relative to untreated control cells
[4] = A-431 cells, 5,000 cells per well, free uptake, 2,000 nM modified oligonucleotide, approx. 48 hours, RTS4814, normalized to RIBOGREEN, Table 3
[5] = Table 2, A-431 cells, free uptake, 2,000 nM, approximately 48 hours, RTS4814, Yap1 mRNA relative to untreated control cells
[6] = Table 54, A-431 cells, Yap1 mRNA, linear regression on a log/linear plot
[7] = Table 54, A-431 cells, free uptake, 148 nM, RTS4814
[8] = Table 54, A-431 cells, free uptake, 444 nM, RTS4814
[9] = Table 54, A-431 cells, free uptake, 1333 nM, RTS4814
[10] = Table 54, A-431 cells, free uptake, 4000 nM, RTS4814
[11] = Table 55, 148 nM, free uptake, A-431 cells 5,000 cells per well, RTS4814
[12] = Table 55, 444 nM, free uptake, A-431 cells 5,000 cells per well, RTS4814
[13] = Table 55, 1333 nM, free uptake, A-431 cells 5,000 cells per well, RTS4814
[14] = Table 55, 4000 nM, free uptake, A-431 cells 5,000 cells per well, RTS4814
[15] = Table 55, A-431 cells 5,000 cells per well, free uptake, RTS4814
[16] = Table 53, A-431 cells, Yap1 mRNA, linear regression on a log/linear plot
[17] = Table 53, A-431 cells, free uptake, 148 nM, RTS4814
[18] = Table 53, A-431 cells, free uptake, 444 nM, RTS4814
[19] = Table 53, A-431 cells, free uptake, 1333 nM, RTS4814
[20] = Table 53, A-431 cells, free uptake, 4000 nM, RTS4814

715586 (kA*kA*kA*dA*dG*dG*dT*d[5mC]*dT*dG*dG*dA*dA*k[5mC]*kA*kG; antisense) [Compound 715586]
YAP1 (% UTC) [1, 3]: 53 % UTC

715492 (antisense kG*k[5mC]*kT*dA*dG*d[5mC]*dT*dG*dG*dT*dG*d[5mC]*d[5mC]*kA*k[5mC]*kT) [Compound 715492]
YAP1 (% UTC) [1, 4]: 76 % UTC

715450 (antisense kT*kT*kG*dT*dT*d[5mC]*dT*d[5mC]*dA*dA*dT*dT*d[5mC]*k[5mC]*kT*kG) [Compound 715450]
YAP1 (% UTC) [1, 4]: 53 % UTC

715544 (k[5mC]*kA*kA*d[5mC]*dT*dA*d[5mC]*dT*dT*dG*dA*dA*dG*kA*kA*k[5mC]; antisense) [Compound 715544]
YAP1 (% UTC) [1, 3]: 128 % UTC

715521 (kT*k[5mC]*kT*dT*d[5mC]*dT*dT*dT*d[5mC]*d[5mC]*dA*d[5mC]*dT*k[5mC]*kA*kA; antisense) [Compound 715521]
YAP1 (% UTC) [1, 5]: 72 % UTC

715546 (kT*kG*kA*d[5mC]*d[5mC]*dA*dA*d[5mC]*dT*dA*d[5mC]*dT*dT*kG*kA*kA; antisense) [Compound 715546]
YAP1 (% UTC) [1, 4]: 59 % UTC

715500 (antisense kA*kA*kG*d[5mC]*d[5mC]*dT*dT*dA*dG*dA*dG*dT*d[5mC]*kA*kA*kT) [Compound 715500]
YAP1 (% UTC) [1, 5]: 30 % UTC

715543 (kA*k[5mC]*kT*dA*d[5mC]*dT*dT*dG*dA*dA*dG*dA*dA*k[5mC]*kT*kA; antisense) [Compound 715543]
YAP1 (% UTC) [1, 4]: 72 % UTC

715523 (kA*kT*k[5mC]*dA*dG*dT*dA*d[5mC]*dT*dG*dG*d[5mC]*d[5mC]*kT*kA*kT; antisense) [Compound 715523]
YAP1 (% UTC) [1, 3]: 32 % UTC

715505 (antisense kA*kT*kT*dG*dG*dT*dT*dT*dA*dT*dT*dG*dT*kA*kA*kA) [Compound 715505]
YAP1 (% UTC) [1, 3]: 84 % UTC

715514 (kG*kA*kG*d[5mC]*dG*dA*dA*dG*dG*dT*dG*d[5mC]*dG*kG*kA*kG; antisense) [Compound 715514]
YAP1 (% UTC) [1, 3]: 121 % UTC

715427 (k[5mC]*k[5mC]*kA*dT*d[5mC]*d[5mC]*dA*dT*d[5mC]*dA*dG*dG*dA*kA*kG*kA; antisense) [Compound 715427]
YAP1 (% UTC) [1, 3]: 90 % UTC

715464 (antisense k[5mC]*k[5mC]*kA*d[5mC]*dA*dT*dT*dT*dG*dT*d[5mC]*d[5mC]*d[5mC]*kA*kG*kG) [Compound 715464]
YAP1 (% UTC) [1, 5]: 89 % UTC

715440 (antisense k[5mC]*kT*kG*dG*dT*dT*d[5mC]*dA*dT*dG*dG*d[5mC]*dA*kA*kA*kA) [Compound 715440]
YAP1 (% UTC) [1, 5]: 85 % UTC

715400 (k[5mC]*kT*k[5mC]*d[5mC]*dG*dA*dG*dT*d[5mC]*d[5mC]*d[5mC]*d[5mC]*dG*k[5mC]*kG*kG; antisense) [Compound 715400]
YAP1 (% UTC) [1, 3]: 107 % UTC

716577 (antisense kT*k[5mC]*kT*dG*dT*d[5mC]*dA*dG*dT*dT*dA*dT*d[5mC]*k[5mC]*kT*kA) [compound 716577]
IC50 [2, 6]: > 4 µM | % UTC 148 nM [2, 7]: 109 % UTC | % UTC 444 nM [2, 8]: 93 % UTC | % UTC 1333 nM [2, 9]: 79 % UTC | % UTC 4000 nM [2, 10]: 60 % UTC

716524 (antisense kA*k[5mC]*kT*dG*dA*dG*dG*dT*dA*dT*dA*dA*d[5mC]*kT*kG*kG) [compound 716524]
Yap1 mRNA, % UTC [2, 11]: 103 % UTC | Yap1 mRNA, % UTC [2, 12]: 92 % UTC | Yap1 mRNA, % UTC [2, 13]: 96 % UTC | Yap1 mRNA, % UTC [2, 14]: 62 % UTC | IC50 [2, 15]: > 4 µM

715479 (kA*kA*kA*d[5mC]*d[5mC]*dA*dT*dT*dA*dT*dT*dA*d[5mC]*kT*k[5mC]*k[5mC]; antisense) [compound 715479]
IC50 [2, 16]: > 4 µM | % UTC 148 nM [2, 17]: 98 % UTC | % UTC 444 nM [2, 18]: 80 % UTC | % UTC 1333 nM [2, 19]: 77 % UTC | % UTC 4000 nM [2, 20]: 64 % UTC

716469 (antisense kG*kT*kT*dT*dG*d[5mC]*dT*d[5mC]*d[5mC]*dT*dT*dT*d[5mC]*k[5mC]*kA*kA) [compound 716469]
IC50 [2, 6]: > 4 µM | % UTC 148 nM [2, 7]: 71 % UTC | % UTC 444 nM [2, 8]: 78 % UTC | % UTC 1333 nM [2, 9]: 89 % UTC | % UTC 4000 nM [2, 10]: 39 % UTC

716554 (antisense kA*kT*kG*d[5mC]*dT*dT*dG*d[5mC]*dG*dA*dG*dG*dA*kT*kA*kA) [compound 716554]
Yap1 mRNA, % UTC [2, 11]: 87 % UTC | Yap1 mRNA, % UTC [2, 12]: 90 % UTC | Yap1 mRNA, % UTC [2, 13]: 76 % UTC | Yap1 mRNA, % UTC [2, 14]: 50 % UTC | IC50 [2, 15]: > 4 µM

715510 (kA*kT*kT*dT*dG*d[5mC]*dT*dG*dT*dG*d[5mC]*dT*dG*kG*kG*kA; antisense) [compound 715510]
IC50 [2, 16]: 2.4 µM | % UTC 148 nM [2, 17]: 88 % UTC | % UTC 444 nM [2, 18]: 67 % UTC | % UTC 1333 nM [2, 19]: 59 % UTC | % UTC 4000 nM [2, 20]: 45 % UTC

716484 (antisense k[5mC]*kA*k[5mC]*dT*dT*dT*dT*d[5mC]*d[5mC]*dA*dG*d[5mC]*dT*kA*kA*k[5mC]) [compound 716484]
IC50 [2, 6]: > 4 µM | % UTC 148 nM [2, 7]: 88 % UTC | % UTC 444 nM [2, 8]: 78 % UTC | % UTC 1333 nM [2, 9]: 80 % UTC | % UTC 4000 nM [2, 10]: 55 % UTC

715434 (kT*k[5mC]*kT*dT*dG*dT*dT*d[5mC]*dT*dT*dA*dT*dG*kG*kT*kT; antisense) [compound 715434]
IC50 [2, 16]: 2.8 µM | % UTC 148 nM [2, 17]: 84 % UTC | % UTC 444 nM [2, 18]: 69 % UTC | % UTC 1333 nM [2, 19]: 64 % UTC | % UTC 4000 nM [2, 20]: 43 % UTC

715555 (kG*kT*kT*dA*dT*dT*d[5mC]*dA*dG*d[5mC]*dA*dG*d[5mC]*kT*kT*kA; antisense) [compound 715555]
IC50 [2, 16]: 2.5 µM | % UTC 148 nM [2, 17]: 93 % UTC | % UTC 444 nM [2, 18]: 71 % UTC | % UTC 1333 nM [2, 19]: 63 % UTC | % UTC 4000 nM [2, 20]: 42 % UTC

715577 (kG*k[5mC]*kA*dT*dT*d[5mC]*dA*d[5mC]*dA*dG*dA*dG*dT*kT*kA*kA; antisense) [compound 715577]
IC50 [2, 16]: > 4 µM | % UTC 148 nM [2, 17]: 87 % UTC | % UTC 444 nM [2, 18]: 76 % UTC | % UTC 1333 nM [2, 19]: 73 % UTC | % UTC 4000 nM [2, 20]: 45 % UTC

715508 (k[5mC]*kT*kG*dT*dG*d[5mC]*dT*dG*dG*dG*dA*dT*dT*kG*kA*kT; antisense) [compound 715508]
IC50 [2, 16]: 3.5 µM | % UTC 148 nM [2, 17]: 78 % UTC | % UTC 444 nM [2, 18]: 70 % UTC | % UTC 1333 nM [2, 19]: 67 % UTC | % UTC 4000 nM [2, 20]: 43 % UTC
